Data published in patent US20230129485A1, “SYSTEM AND METHOD FOR DETERMINING MATERIAL PROPERTIES OF MOLECULAR SYSTEMS FROM AN AB-INITIO PARAMETERIZED FORCE-FIELD” (InterX, Inc., priority 2021, published 2023).
Like-named read-outs stand apart in the source and are kept apart here.

How the values were obtained:
[1] = Free energy of hydration predicted with the QM-parameterized force field model (ARROW FF), classical MD and PIMD simulation in a water box; conditions: for Arrow error: Table 5, error of Arrow PIMD8 hydration free energy vs experiment; for Arrow PIMD8 Error: absolute error vs Exp (hydration)
In short: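 Classical and PIMD runs (MTS integrator, MTTK barostat at 1 atm) followed minimization and 50 ps equilibration, with 1 ns NPT production per window. Fifteen unequally spaced lambda windows removed all solute-solvent interactions simultaneously in a 32 Å water box. Hydration free energy computed by Bennett acceptance ratio and thermodynamic integration.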

[2] = Free energy of solvation in cyclohexane predicted with the QM-parameterized force field model (ARROW FF), MD and PIMD; conditions: Table 4; for CHEX Arrow MD Error: error of MD cyclohexane solvation free energy vs experiment; for CHEX Arrow PIMD4 Error: error of PIMD4 cyclohexane solvation free energy vs experiment
Description: Cyclohexane (CHEX) is nonpolar and equilibrates relatively quickly.
Particle-Mesh Ewald (PME) algorithm was used to compute the electrostatic interactions. A 32×32×32 grid mesh and 5th power spline interpolation order can be used to compute the inverse PME sum. 9 Å cutoffs were used to compute the direct PME sum as well as the exchange and dispersion interactions. Bulk corrections were applied to account for distance cut-off of dispersion interactions. Solvation free energies were computed by decoupling the interactions between the solute and the solvent molecules. Electrostatic, exchange-repulsion and dispersion interactions were switched off simultaneously using a lambda-dependent scaling (a scaling factor power=2 was used) and a soft-coring algorithm (maximal soft-coring radius=1.5 Å, soft-coring radius scaling factor power=1). 15 lambda points unequally spaced (X=0, 0.05, 0.1, 0.2, 0.3, 0.4, 0.5, 0.6, 0.7, 0.75, 0.8, 0.85, 0.9, 0.95, 1.0) were used to decouple the solute-solvent intermolecular interactions.
In some simulations of the QM-parameterized force field molecular simulation process, energy minimization (10,000 steps) using the steepest descent algorithm was initially performed on all the simulation systems. This was followed by a 50 ps equilibration and 1 ns production runs in the isothermal-isobaric ensemble (NPT). […] Pressure was maintained at 1 atm using a MTTK barostat (relaxation time=5 ps). A Multiple Time Step (MTS) algorithm was used to integrate the equations of motion both for the classical and path-integral runs. […] The calculations were performed using the QM-parameterized force field model.
Using the QM-parameterized force field model, the QM-parameterized force field device can compute or predict the solvation free energies using both the Bennett acceptance ratio (BAR) and thermodynamic integration (TI) method with <dH/dλ> values interpolated by cubic splines.

[3] = Free energy of hydration predicted by General Amber Force Field (GAFF), from literature; conditions: Table 5; error of GAFF hydration free energy vs experiment
[4] = Free energy of hydration predicted by polarizable AMOEBA force field, from literature; conditions: Table 5; error of AMOEBA hydration free energy vs experiment
[5] = Free energy of hydration by COSMO implicit solvent model (MolPro ver. 2012); conditions: absolute error vs Exp (hydration)
In short: (§1)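 COSMO solvation free energies were calculated for the molecule set with MolPro because no original-COSMO free energy data were available. SMD and PCM hydration free energies were obtained as received. SMD, PCM and COSMO-RS values cover only molecules that overlap with those computed using the QM-parameterized force field model.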

[6] = Free energy of hydration by Solvation Model Dielectric (SMD) implicit solvent model; conditions: absolute error vs Exp (hydration)
In short: as §1

[7] = Free energy of hydration by Polarizable Continuum Model (PCM); conditions: absolute error vs Exp (hydration)
In short: as §1

[8] = Free energy of hydration by COSMO-RS
In short: as §1

[9] = experimental, cited from earlier work; for Exp (hydration): Table 5
[10] = experimental, cited from earlier work
[11] = Table 5; free energy of hydration, GAFF prediction taken from literature; cited from earlier work
[12] = Table 5; free energy of hydration, AMOEBA prediction taken from literature; cited from earlier work
[13] = implicit solvent model, values received; cited from earlier work
[14] = implicit solvent model, values received; cited from earlier work; remark: listed apart in the source
[15] = CHEX/H2O partition coefficient (log D) predicted with the QM-parameterized force field model (ARROW FF)
In short: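 Cyclohexane/water partition coefficients were predicted by molecular simulation with a QM-parameterized force field, with bonded force constants and equilibrium values fitted to MP2/aug-cc-pVTZ energies. Solutes carried neutral functional groups, and results from four independent groups were averaged.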

[16] = Table 3; CHEX/H2O partition coefficient, experimental; cited from earlier work
[17] = Table 3, absolute error of MD hydration free energy vs experiment
[18] = Table 3, absolute error of PIMD8 hydration free energy vs experiment
[19] = Table 4, error of MD hydration free energy vs experiment
[20] = Table 4, error of PIMD8 hydration free energy vs experiment
[21] = Table 3, free energy of hydration
[22] = Table 4, neutral amino-acid analogues
[23] = Table 3, free energy of solvation in cyclohexane
[24] = Table 4, solvation free energy in cyclohexane
[25] = Table 3, absolute error of MD log D vs experiment
[26] = Table 3, absolute error of PIMD log D vs experiment

CC(N)=O [Acetamide]
water Arrow MD Error [1, 17]: 0.87 kcal/mol
water Arrow PIMD8 Error [1, 18]: 0.06 kcal/mol
water Arrow MD Error [1, 19]: 0.87 kcal/mol
water Arrow PIMD8 Error [1, 20]: 0.06 kcal/mol
Arrow error [1]: 0.06 kcal/mol
Arrow PIMD8 Error [1]: 0.06 kcal/mol
CHEX Arrow MD Error [2]: 0.63 kcal/mol
CHEX Arrow PIMD4 Error [2]: 0.58 kcal/mol
GAFF error [3]: 1.91 kcal/mol
AMOEBA error [4]: 0.41 kcal/mol
COSMO/Molpro Error [5]: 4.11 kcal/mol
SMD Error [6]: 0.71 kcal/mol
PCM Error [7]: 2.81 kcal/mol
COSMO-RS error [8]: 2.55 kcal/mol
water Exp (hydration) [9, 21]: -9.71 kcal/mol
water Exp (hydration) [9, 22]: -9.71 kcal/mol
Exp (hydration) ([9]; free energy of hydration): -9.71 kcal/mol
CHEX Exp (solvation) [10, 23]: -3.01 kcal/mol
CHEX Exp (solvation) [10, 24]: -3.01 kcal/mol
GAFF [11]: -7.80 kcal/mol
AMOEBA [12]: -9.30 kcal/mol
SMD free energy of hydration [13]: -9.00 kcal/mol
PCM free energy of hydration [14]: -6.90 kcal/mol

CC(=O)O [AceticAcid]
water Arrow MD Error [1, 17]: 0.19 kcal/mol
water Arrow PIMD8 Error [1, 18]: 0.34 kcal/mol
water Arrow MD Error [1, 19]: 0.19 kcal/mol
water Arrow PIMD8 Error [1, 20]: 0.34 kcal/mol
Arrow error [1]: 0.34 kcal/mol
Arrow PIMD8 Error [1]: 0.34 kcal/mol
CHEX Arrow MD Error [2]: 0.09 kcal/mol
CHEX Arrow PIMD4 Error [2]: 0.01 kcal/mol
GAFF error [3]: 0.74 kcal/mol
AMOEBA error [4]: 1.06 kcal/mol
COSMO/Molpro Error [5]: 2.47 kcal/mol
SMD Error [6]: 0.99 kcal/mol
PCM Error [7]: 2.19 kcal/mol
COSMO-RS error [8]: 0.22 kcal/mol
water Exp (hydration) [9, 21]: -6.69 kcal/mol
water Exp (hydration) [9, 22]: -6.69 kcal/mol
Exp (hydration) ([9]; free energy of hydration): -6.69 kcal/mol
CHEX Exp (solvation) [10, 23]: -2.20 kcal/mol
CHEX Exp (solvation) [10, 24]: -2.20 kcal/mol
GAFF [11]: -5.95 kcal/mol
AMOEBA [12]: -5.63 kcal/mol
SMD free energy of hydration [13]: -5.70 kcal/mol
PCM free energy of hydration [14]: -4.50 kcal/mol

Nc1ccccc1 [Aniline]
water Arrow MD Error [1, 17]: 0.17 kcal/mol
water Arrow PIMD8 Error [1, 18]: 0.06 kcal/mol
Arrow error [1]: 0.06 kcal/mol
Arrow PIMD8 Error [1]: 0.06 kcal/mol
log D Arrow MD Error [15, 25]: 0.18
log D Arrow PIMD Error [15, 26]: 0.13
GAFF error [3]: 0.38 kcal/mol
AMOEBA error [4]: 0.76 kcal/mol
COSMO/Molpro Error [5]: 2.13 kcal/mol
SMD Error [6]: 0.74 kcal/mol
PCM Error [7]: 1.44 kcal/mol
COSMO-RS error [8]: 0.23 kcal/mol
water Exp (hydration) [9, 21]: -5.54 kcal/mol
Exp (hydration) ([9]; free energy of hydration): -5.54 kcal/mol
CHEX Exp (solvation) [10, 23]: -5.52 kcal/mol
GAFF [11]: -5.92 kcal/mol
AMOEBA [12]: -4.78 kcal/mol
SMD free energy of hydration [13]: -4.80 kcal/mol
PCM free energy of hydration [14]: -4.10 kcal/mol
Exp (log D) [16]: −0.01

c1ccccc1 [Benzene]
water Arrow MD Error [1, 17]: 0.58 kcal/mol
water Arrow PIMD8 Error [1, 18]: 0.17 kcal/mol
Arrow error [1]: 0.17 kcal/mol
Arrow PIMD8 Error [1]: 0.17 kcal/mol
GAFF error [3]: 0.18 kcal/mol
AMOEBA error [4]: 0.02 kcal/mol
COSMO/Molpro Error [5]: 2.32 kcal/mol
SMD Error [6]: 0.18 kcal/mol
PCM Error [7]: 0.72 kcal/mol
COSMO-RS error [8]: 0.01 kcal/mol
water Exp (hydration) [9, 21]: -0.88 kcal/mol
Exp (hydration) ([9]; free energy of hydration): -0.88 kcal/mol
CHEX Exp (solvation) [10, 23]: -4.19 kcal/mol
GAFF [11]: -0.70 kcal/mol
AMOEBA [12]: -0.86 kcal/mol
SMD free energy of hydration [13]: -0.70 kcal/mol
PCM free energy of hydration [14]: -1.60 kcal/mol

CCCCCCCC [Octane]
water Arrow MD Error [1, 17]: 1.27 kcal/mol
water Arrow PIMD8 Error [1, 18]: 0.06 kcal/mol
Arrow error [1]: 0.04 kcal/mol
Arrow PIMD8 Error [1]: 0.06 kcal/mol
log D Arrow MD Error [15]: 0.50
log D Arrow PIMD Error [15]: 0.20
GAFF error [3]: 0.25 kcal/mol
AMOEBA error [4]: 1.14 kcal/mol
COSMO/Molpro Error [5]: 3.74 kcal/mol
SMD Error [6]: 0.19 kcal/mol
PCM Error [7]: 3.19 kcal/mol
COSMO-RS error [8]: 0.10 kcal/mol
water Exp (hydration) [9, 21]: 2.89 kcal/mol
Exp (hydration) ([9]; free energy of hydration): 2.88 kcal/mol
CHEX Exp (solvation) [10, 23]: -5.63 kcal/mol
GAFF [11]: 3.13 kcal/mol
AMOEBA [12]: 1.74 kcal/mol
SMD free energy of hydration [13]: 2.70 kcal/mol
PCM free energy of hydration [14]: -0.30 kcal/mol
Exp (log D) [16]: 6.25

Oc1ccccc1 [Phenol]
water Arrow MD Error [1, 17]: 1.02 kcal/mol
water Arrow PIMD8 Error [1, 18]: 0.18 kcal/mol
Arrow error [1]: 0.18 kcal/mol
Arrow PIMD8 Error [1]: 0.18 kcal/mol
log D Arrow MD Error [15, 25]: 0.65
log D Arrow PIMD Error [15, 26]: 0.21
GAFF error [3]: 0.95 kcal/mol
AMOEBA error [4]: 1.57 kcal/mol
COSMO/Molpro Error [5]: 0.92 kcal/mol
SMD Error [6]: 1.42 kcal/mol
PCM Error [7]: 2.62 kcal/mol
COSMO-RS error [8]: 0.62 kcal/mol
water Exp (hydration) [9, 21]: -6.62 kcal/mol
Exp (hydration) ([9]; free energy of hydration): -6.62 kcal/mol
CHEX Exp (solvation) [10, 23]: -5.56 kcal/mol
GAFF [11]: -5.67 kcal/mol
AMOEBA [12]: -5.05 kcal/mol
SMD free energy of hydration [13]: -5.20 kcal/mol
PCM free energy of hydration [14]: -4.00 kcal/mol
Exp (log D) [16]: −0.78

CCN [ethylamine]
water Arrow MD Error [1, 17]: 1.03 kcal/mol
water Arrow PIMD8 Error [1, 18]: 0.12 kcal/mol
Arrow error [1]: 0.12 kcal/mol
Arrow PIMD8 Error [1]: 0.12 kcal/mol
log D Arrow MD Error [15, 25]: 0.69
log D Arrow PIMD Error [15, 26]: 0.08
GAFF error [3]: 1.36 kcal/mol
AMOEBA error [4]: 0.17 kcal/mol
COSMO/Molpro Error [5]: 1.30 kcal/mol
SMD Error [6]: 0.70 kcal/mol
PCM Error [7]: 1.70 kcal/mol
COSMO-RS error [8]: 0.30 kcal/mol
water Exp (hydration) [9, 21]: -4.50 kcal/mol
Exp (hydration) ([9]; free energy of hydration): -4.50 kcal/mol
CHEX Exp (solvation) [10, 23]: -2.13 kcal/mol
GAFF [11]: -3.14 kcal/mol
AMOEBA [12]: -4.33 kcal/mol
SMD free energy of hydration [13]: -3.80 kcal/mol
PCM free energy of hydration [14]: -2.80 kcal/mol
Exp (log D) [16]: −1.74

CN(C)C [trimethylamine]
water Arrow MD Error [1, 17]: 1.04 kcal/mol
water Arrow PIMD8 Error [1, 18]: 0.02 kcal/mol
Arrow error [1]: 0.02 kcal/mol
Arrow PIMD8 Error [1]: 0.02 kcal/mol
log D Arrow MD Error [15]: 0.10
log D Arrow PIMD Error [15]: 0.43
GAFF error [3]: 0.88 kcal/mol
AMOEBA error [4]: 1.11 kcal/mol
COSMO/Molpro Error [5]: 0.30 kcal/mol
SMD Error [6]: 0.70 kcal/mol
PCM Error [7]: 1.90 kcal/mol
COSMO-RS error [8]: 2.55 kcal/mol
water Exp (hydration) [9, 21]: -3.20 kcal/mol
Exp (hydration) ([9]; free energy of hydration): -3.20 kcal/mol
CHEX Exp (solvation) [10, 23]: -2.63 kcal/mol
GAFF [11]: -2.32 kcal/mol
AMOEBA [12]: -2.09 kcal/mol
SMD free energy of hydration [13]: -2.50 kcal/mol
PCM free energy of hydration [14]: -1.30 kcal/mol
Exp (log D) [16]: −0.42
